Laboratory results as given in patent publication US11452725B2, “Chiral diaryl macrocycles and uses thereof” (TURNING POINT THERAPEUTICS, INC., priority 2015, dated 2022).
“Also recorded” adds a separate entry of the source.

Columns and labels:
IRR = biological target: T1, IRR (Homo sapiens, UniProt P14616); test: Biochemical kinase assay (Reaction Biology); conditions: 10 μM ATP
T1 construct: purchased Reaction Biology Corporation (contract assay)

Ba/F3 + IL3 parental = test: Cell proliferation assay (CellTiter-Glo); assay type: cell-based; conditions: Mus musculus, BaF3; parental cells with IL3
CD44 = CD44 expression by immunoblotting in H2228 cells; assay type: cell-based, human; conditions: 48 hours treatment, 0-1000 nM
Protocol: NSCLC cell line H2228 (harboring endogenous EML4-ALK fusion gene) was cultured in RPMI medium supplemented with 10% fetal bovine serum and 100 U/mL of penicillin/streptomycin. Ba/F3 and NIH3T3 cells stably expressing ROS1, or TRKA, or TRKB, or TRKC (WT or mutant) were cultured as mentioned above. […] Cells were collected after treatment and lysed in RIPA buffer (50 mM Tris, pH 7.4, 150 mM NaCl, 1% NP-40, 0.5% Deoxycholate, 0.1% SDS) supplemented with 10 mM EDTA, 1× Halt protease and phosphatase inhibitors (Thermo Scientific). Protein lysates (approximately 20 μg) was resolved on 4-12% Bolt Bis-Tris precasted gels with MES running buffer (Life Technologies), transferred to nitrocellulose membranes using Trans-Blot Turbo Transfer System (Bio-Rad) and detected with antibodies targeting phosphorylated phosphorylated ROS1 and total ROS1 (Cell Signaling Technology), phosphorylated TRK A/B (Cell Signaling Technology), total TRKA antibody (Santa Cruz Biotechnology), phosphorylated SRC Y416 (Cell Signaling Technology), total SRC (Cell Signaling Technology), phosphorylated FAK Y576/577 (Cell Signaling Technology), total FAK (Cell Signaling Technology), phosphorylated paxillin Y118 (Cell Signaling Technology), total paxillin (Cell Signaling Technology), phosphorylated EGFR and total EGFR, CD44, and Tubulin (Sigma). […]

DDR1 = biological target: T2, DDR1 (Homo sapiens, UniProt Q08345); test: Biochemical kinase assay (Reaction Biology); conditions: 10 μM ATP
T2 construct: purchased Reaction Biology Corporation

KM12 cell line = test: cells; conditions: Homo sapiens, KM12, 72 h, read-out: Cell proliferation of KM12 cell line IC50
[1] = test system: NIH3T3 SDC4-ROS1 WT tumors; test: NIH3T3 SDC4-ROS1 WT subcutaneous xenograft model; assay type: in vivo, athymic nude mice; conditions: 26 days
Protocol: Female athymic nude mice and SCID/Beige mice (5-8 weeks of age) were obtained from Charles River Laboratory and were housed in Innovive IVC disposable cages on HEPA filtered ventilated racks with ad libitum access to rodent chow and water. Five million cells in 100 μL, serum-free medium were implanted subcutaneously in the right flank region of the mouse. Karpas299 cells were implanted into the SCID/Beige mice. KM12 cells, NIH3T3 EML4-ALK wild type mutant cells, and NIH3T3 SCD4-ROS1 wild type mutant cells were implanted into the athymic nude mice, respectively. All models except KM12 were implanted with 50% matrigel (Corning, Inc) in the medium. Tumor size and body weight were measured on designated days. Tumor size was measured with an electronic caliper and tumor volume was calculated as the product of length*width^2*0.5.
The SDC4-ROS1 fusion gene is considered as the driver for tumor progression in NSCLC. […] The control group of mice were given vehicle only. Tumor volume was measured by caliper on the indicated days and is shown at mean±sem in FIG. 9.

LCK = biological target: T3, LCK (Homo sapiens, UniProt P06239); test: Biochemical kinase assay (Reaction Biology); conditions: 10 μM ATP
T3 construct: purchased Reaction Biology Corporation (contract assay)

ARK5 = ARK5 (Homo sapiens, UniProt O60285); test: Biochemical kinase assay (Reaction Biology); conditions: 10 μM ATP
Ba/F3 EML4-ALK WT tumors = test: Ba/F3 EML4-ALK WT subcutaneous xenograft model; assay type: in vivo, SCID/Beige mice; conditions: 14 days
[2] = test system: Ba/F3 CD74-ROS1 G2032R tumors; test: Ba/F3 CD74-ROS1 G2032R subcutaneous xenograft model; assay type: in vivo, SCID/Beige mice; conditions: 11 days
[3] = test system: Ba/F3 TPR-ALK wild type cell line; test: Cell proliferation assay at Advanced Cellular Dynamics (CellTiter-Glo); assay type: cell-based; conditions: Mus musculus, BaF3, 48 hours
EPHA8 = biological target: T4, EPHA8 (Homo sapiens, UniProt P29322); test: Biochemical kinase assay (Reaction Biology); conditions: 10 μM ATP
T4 construct: purchased Reaction Biology Corporation (contract assay)

AXL = biological target: T5, AXL (Homo sapiens, UniProt P30530); test: Biochemical kinase assay (Reaction Biology); conditions: 10 μM ATP
T5 construct: purchased Reaction Biology Corporation (contract assay)

[4] = test system: Ba/F3 EML4-ALK G1202R cell line; test: Cell proliferation assay (CellTiter-Glo); assay type: cell-based; conditions: Mus musculus, 72 hours
NPM-ALK = NPM-ALK (Homo sapiens, UniProt Q9UM73); test: In vivo pharmacodynamics: ALK phosphorylation in Karpas 299 tumors (immunoblotting); parameters: species or system mice
Protocol: Mice bearing xenograft tumors were humanely euthanized and tumors were resected and snap frozen in liquid nitrogen and stored at −80° C. Frozen tumor samples were processed at 4° C. in 1× Cell Lysis Buffer (Cell Signaling Technologies) to extract proteins. SDS loading samples were prepared by adding one volume of 4×LDS Sample Buffer (Life Technologies, Inc) to three volumes of protein lysate. Tumor SDS protein samples were processed by SDS-PAGE and immunoblotted with rabbit anti-phosphorylated ALK and mouse anti-actin antibodies (Cell Signaling Technologies). The signals from immunoblot were detected by C-DiGit Blot Scanner from LI-COR and the signal intensity were quantified using the Image Studio Digit software (LI-COR).
The level of ALK phosphorylation was determined by immunoblotting combined with signal quantification by the Image Studio Digit Software. […] At the dose of 15 mg/kg, ALK phosphorylation was reduced to <10% of the control level at 3 hours post oral administration and was maintained at about 21% of the control level at 12 hours post dosing.

Chain of NPM-ALK (Q9UM73 with tags, fused parts or gaps): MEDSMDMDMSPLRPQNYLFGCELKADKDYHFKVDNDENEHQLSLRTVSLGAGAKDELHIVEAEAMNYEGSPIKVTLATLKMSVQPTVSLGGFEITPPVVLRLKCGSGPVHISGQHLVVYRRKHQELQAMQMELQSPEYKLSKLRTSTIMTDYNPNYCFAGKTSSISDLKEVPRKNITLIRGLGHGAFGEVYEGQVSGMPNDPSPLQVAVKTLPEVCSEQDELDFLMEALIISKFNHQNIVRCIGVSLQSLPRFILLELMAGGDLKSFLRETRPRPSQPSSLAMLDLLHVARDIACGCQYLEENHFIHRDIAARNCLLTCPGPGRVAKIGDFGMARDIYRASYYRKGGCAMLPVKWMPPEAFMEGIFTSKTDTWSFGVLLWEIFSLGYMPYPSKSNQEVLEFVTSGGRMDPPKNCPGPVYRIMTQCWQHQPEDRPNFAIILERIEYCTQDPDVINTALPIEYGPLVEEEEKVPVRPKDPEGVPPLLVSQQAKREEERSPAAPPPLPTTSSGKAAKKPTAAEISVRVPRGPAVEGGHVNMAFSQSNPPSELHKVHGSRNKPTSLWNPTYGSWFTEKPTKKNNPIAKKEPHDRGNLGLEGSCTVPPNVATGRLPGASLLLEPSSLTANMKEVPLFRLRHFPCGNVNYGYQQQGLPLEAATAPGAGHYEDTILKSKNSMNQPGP
T2 sequence (Q08345 19-913): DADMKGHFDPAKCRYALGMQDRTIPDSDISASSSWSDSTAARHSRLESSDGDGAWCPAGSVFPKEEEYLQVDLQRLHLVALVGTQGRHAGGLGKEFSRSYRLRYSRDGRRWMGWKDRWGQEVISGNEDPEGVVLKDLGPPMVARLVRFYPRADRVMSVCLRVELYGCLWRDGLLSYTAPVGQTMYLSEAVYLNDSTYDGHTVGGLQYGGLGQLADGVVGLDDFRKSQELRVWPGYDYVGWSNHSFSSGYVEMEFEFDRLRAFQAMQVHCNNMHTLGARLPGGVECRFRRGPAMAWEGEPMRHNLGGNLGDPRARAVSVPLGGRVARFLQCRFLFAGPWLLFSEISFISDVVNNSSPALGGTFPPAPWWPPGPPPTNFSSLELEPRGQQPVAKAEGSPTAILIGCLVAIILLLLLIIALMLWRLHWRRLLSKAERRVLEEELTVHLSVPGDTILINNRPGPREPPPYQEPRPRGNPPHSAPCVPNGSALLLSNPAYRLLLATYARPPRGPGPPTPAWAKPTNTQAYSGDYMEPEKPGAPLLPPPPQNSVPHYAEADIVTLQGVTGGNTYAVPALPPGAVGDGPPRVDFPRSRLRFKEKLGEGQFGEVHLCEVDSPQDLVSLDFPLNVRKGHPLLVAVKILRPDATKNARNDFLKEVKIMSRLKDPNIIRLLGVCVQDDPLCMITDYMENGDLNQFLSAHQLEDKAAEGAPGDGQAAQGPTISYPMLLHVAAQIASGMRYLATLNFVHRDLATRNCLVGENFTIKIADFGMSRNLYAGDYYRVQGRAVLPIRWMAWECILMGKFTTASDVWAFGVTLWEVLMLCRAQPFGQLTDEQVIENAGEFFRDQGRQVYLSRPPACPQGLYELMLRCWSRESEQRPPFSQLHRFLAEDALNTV
T1 sequence (P14616 27-1297): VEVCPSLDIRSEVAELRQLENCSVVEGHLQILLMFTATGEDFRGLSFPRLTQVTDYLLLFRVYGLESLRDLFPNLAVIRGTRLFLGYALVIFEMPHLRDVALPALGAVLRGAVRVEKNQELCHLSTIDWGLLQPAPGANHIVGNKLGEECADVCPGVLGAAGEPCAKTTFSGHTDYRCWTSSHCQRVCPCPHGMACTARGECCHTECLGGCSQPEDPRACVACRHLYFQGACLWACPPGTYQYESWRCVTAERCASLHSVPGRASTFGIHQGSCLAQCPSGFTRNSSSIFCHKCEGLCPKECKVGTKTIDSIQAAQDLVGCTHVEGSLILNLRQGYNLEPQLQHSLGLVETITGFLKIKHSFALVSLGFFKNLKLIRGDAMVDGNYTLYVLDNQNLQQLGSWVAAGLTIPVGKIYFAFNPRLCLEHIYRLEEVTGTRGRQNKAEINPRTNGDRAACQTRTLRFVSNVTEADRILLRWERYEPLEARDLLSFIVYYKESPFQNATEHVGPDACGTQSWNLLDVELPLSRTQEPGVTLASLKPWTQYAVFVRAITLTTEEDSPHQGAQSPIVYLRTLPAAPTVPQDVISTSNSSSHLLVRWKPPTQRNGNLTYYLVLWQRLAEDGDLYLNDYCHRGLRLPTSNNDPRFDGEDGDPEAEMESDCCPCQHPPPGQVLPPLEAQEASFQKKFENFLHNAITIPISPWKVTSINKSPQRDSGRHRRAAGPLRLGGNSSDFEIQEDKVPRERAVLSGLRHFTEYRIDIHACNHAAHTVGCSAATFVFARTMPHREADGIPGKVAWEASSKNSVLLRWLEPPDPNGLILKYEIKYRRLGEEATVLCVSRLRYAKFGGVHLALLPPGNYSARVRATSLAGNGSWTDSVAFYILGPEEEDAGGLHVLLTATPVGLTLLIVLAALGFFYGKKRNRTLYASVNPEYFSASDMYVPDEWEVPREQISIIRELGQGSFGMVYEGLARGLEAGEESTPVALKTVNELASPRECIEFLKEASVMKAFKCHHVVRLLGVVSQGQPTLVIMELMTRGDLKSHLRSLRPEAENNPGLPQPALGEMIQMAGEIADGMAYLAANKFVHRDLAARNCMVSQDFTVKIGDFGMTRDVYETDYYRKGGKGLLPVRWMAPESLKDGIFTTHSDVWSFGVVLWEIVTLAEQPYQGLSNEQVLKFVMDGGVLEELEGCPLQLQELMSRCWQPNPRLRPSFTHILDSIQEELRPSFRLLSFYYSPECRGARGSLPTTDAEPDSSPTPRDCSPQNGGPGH
Chain of ARK5 (O60285 whole entry): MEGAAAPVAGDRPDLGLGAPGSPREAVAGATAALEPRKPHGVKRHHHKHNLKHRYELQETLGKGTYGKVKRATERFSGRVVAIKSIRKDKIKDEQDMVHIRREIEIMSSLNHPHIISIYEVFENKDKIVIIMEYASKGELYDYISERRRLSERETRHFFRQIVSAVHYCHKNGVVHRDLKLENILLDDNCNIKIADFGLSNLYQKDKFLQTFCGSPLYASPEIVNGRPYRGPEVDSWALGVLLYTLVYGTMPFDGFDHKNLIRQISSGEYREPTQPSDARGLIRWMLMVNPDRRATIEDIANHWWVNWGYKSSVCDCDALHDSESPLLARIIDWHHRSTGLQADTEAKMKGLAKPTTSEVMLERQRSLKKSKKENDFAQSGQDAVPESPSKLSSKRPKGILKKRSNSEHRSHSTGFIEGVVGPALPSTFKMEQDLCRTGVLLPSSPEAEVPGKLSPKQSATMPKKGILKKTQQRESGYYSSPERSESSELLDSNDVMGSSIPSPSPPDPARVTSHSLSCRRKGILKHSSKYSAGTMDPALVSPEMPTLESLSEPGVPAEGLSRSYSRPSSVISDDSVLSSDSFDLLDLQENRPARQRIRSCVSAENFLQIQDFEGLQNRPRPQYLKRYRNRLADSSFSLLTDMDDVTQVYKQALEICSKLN
T4 sequence (P29322 28-1005): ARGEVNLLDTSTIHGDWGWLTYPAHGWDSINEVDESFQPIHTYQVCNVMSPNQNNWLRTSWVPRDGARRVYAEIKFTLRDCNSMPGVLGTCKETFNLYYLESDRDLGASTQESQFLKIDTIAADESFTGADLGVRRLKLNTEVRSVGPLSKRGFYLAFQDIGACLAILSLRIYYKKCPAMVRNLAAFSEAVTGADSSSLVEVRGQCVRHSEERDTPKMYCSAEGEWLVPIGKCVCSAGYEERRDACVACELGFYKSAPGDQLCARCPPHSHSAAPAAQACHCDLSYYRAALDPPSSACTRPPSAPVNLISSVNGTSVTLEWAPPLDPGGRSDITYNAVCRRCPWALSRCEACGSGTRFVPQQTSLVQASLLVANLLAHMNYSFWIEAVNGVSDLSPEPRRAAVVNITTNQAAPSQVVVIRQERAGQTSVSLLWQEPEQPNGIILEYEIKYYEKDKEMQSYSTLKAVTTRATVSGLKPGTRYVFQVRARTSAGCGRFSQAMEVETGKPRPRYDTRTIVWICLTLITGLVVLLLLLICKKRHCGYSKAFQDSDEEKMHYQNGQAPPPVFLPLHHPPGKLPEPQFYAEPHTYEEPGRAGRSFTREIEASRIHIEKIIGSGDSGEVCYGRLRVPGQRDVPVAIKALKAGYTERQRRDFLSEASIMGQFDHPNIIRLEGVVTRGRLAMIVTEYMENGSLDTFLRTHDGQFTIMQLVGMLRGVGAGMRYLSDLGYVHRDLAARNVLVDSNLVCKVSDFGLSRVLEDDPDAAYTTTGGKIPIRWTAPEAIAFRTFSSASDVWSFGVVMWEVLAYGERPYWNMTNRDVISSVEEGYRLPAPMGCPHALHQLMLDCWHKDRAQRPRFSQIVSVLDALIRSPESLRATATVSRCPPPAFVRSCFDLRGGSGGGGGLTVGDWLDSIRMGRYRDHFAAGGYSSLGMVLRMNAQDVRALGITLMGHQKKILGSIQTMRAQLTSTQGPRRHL
T3 sequence (P06239 whole entry): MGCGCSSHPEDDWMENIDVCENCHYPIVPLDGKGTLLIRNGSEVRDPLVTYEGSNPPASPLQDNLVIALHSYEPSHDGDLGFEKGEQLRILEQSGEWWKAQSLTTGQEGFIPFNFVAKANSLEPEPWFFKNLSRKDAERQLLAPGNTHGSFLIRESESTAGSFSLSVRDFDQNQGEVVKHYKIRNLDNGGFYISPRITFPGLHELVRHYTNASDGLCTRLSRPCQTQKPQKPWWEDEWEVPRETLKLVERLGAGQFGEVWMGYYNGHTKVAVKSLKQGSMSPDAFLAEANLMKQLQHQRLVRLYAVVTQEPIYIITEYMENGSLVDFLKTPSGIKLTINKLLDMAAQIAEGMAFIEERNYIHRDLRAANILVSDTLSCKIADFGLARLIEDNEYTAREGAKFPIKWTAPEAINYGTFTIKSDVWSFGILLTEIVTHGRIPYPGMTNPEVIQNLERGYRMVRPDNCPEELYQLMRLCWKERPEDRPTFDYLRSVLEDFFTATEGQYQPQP

C[C@H]1CNC(=O)c2cnn3ccc(nc23)N[C@H](C)c2cc(F)ccc2O1 [Compound 1, (7S,13R)-11-fluoro-7,13-dimethyl-6,7,13,14-tetrahydro-1,15-ethenopyrazolo[4,3-f][1,4,8,10]benzoxatriazacyclotridecin-4(5H)-one]
IC50 (IRR): 18.1 nM | IC50 (Ba/F3 + IL3 parental): 1240 nM | CD44 expression level (CD44): down-regulates CD44 expression; also recorded: suppressed CD44 expression level in H2228 cells in a concentration-dependent manner | IC50 (DDR1): 5.7 nM | IC50 (KM12 cell line): 0.3 nM | mice exhibiting tumor regression ([1]; 15 mg/kg BID orally): 7 of 8 | tumor regression (REG) ([1]; 15 mg/kg BID orally): 39% | mice exhibiting tumor regression ([1]; 50 mg/kg BID orally): 7 of 7 | tumor regression (REG) ([1]; 50 mg/kg BID orally): 69% | IC50 (LCK): 18.6 nM | IC50 (ARK5): 4.46 nM | Tumor growth inhibition (TGI) (Ba/F3 EML4-ALK WT tumors; 15 mg/kg/BID orally): 74% | mice exhibiting tumor regression (Ba/F3 EML4-ALK WT tumors; 75 mg/kg BID orally): 6 of 8 | tumor regression (REG) (Ba/F3 EML4-ALK WT tumors; 75 mg/kg BID orally): 54% | mice exhibiting tumor regression ([2]; 15 mg/kg/BID orally): 2 of 8 | mice exhibiting complete tumor regression ([2]; 75 mg/kg BID orally): 8 of 8 | tumor regression (REG) ([2]; 75 mg/kg BID orally): 100% | IC50 [3]: 12 nM | IC50 (EPHA8): 50.2 nM | IC50 (AXL): 149 nM | IC50 [4]: 20.5 nM | ALK phosphorylation, % of the control level (NPM-ALK; 15 mg/kg BID 7 days, 3 hours post oral administration): < 10% | ALK phosphorylation, % of the control level (NPM-ALK; 15 mg/kg BID 7 days, 12 hours post dosing): about 21% | ALK phosphorylation, % of the control level (NPM-ALK; 50 mg/kg BID 7 days, 3 hours post oral administration): < 5% | ALK phosphorylation, % of the control level (NPM-ALK; 50 mg/kg BID 7 days, 12 hours post dosing): about 10%
